Results taken from patent publication US20260015344A1, “PAN-KRAS INHIBITORS” (Mirati Therapeutics, Inc., priority 2022, published 2026).

Legend:
KRas^G12S = target: T1, KRas^G12S (Homo sapiens, UniProt P01116, G12S); assay: KRas Binding Assay (TR-FRET displacement), KRas G12S; conditions: TR-FRET tracer displacement
T1 construct: corresponding to amino acids 1-169, produced at Accelegan Inc; biotin (biotinylated); purchased Accelegan Inc
Experimental: (§1) This Example illustrates that exemplary compounds of the present invention bind to KRas and are capable of displacing a labeled tracer ligand occupying the KRas binding site. KRas^WT, KRas^G12A, KRas^G12C, KRas^G12D, KRas^G12R, KRas^G12S, KRas^G12V, KRas^G13D, or KRas^Q61H was used in the assay.
(§2) The ability of a compound to bind to KRas was measured using a TR-FRET displacement assay. Biotinylated KRas (corresponding to amino acids 1-169, produced at Accelegan Inc.) was incubated with custom made Cy5 labelled tracer, terbium streptavidin (Cisbio Inc.) and compound (1% DMSO final) in buffer (50 mM HEPES, pH 7.5, 5 mM MgCl2, 0.005% Tween-20 and 1 mM DTT). After a 60-minute incubation at room temperature, the reaction was measured using a BMG LABTECH CLARIO star Plus via TR-FRET. […] The POC values were fit to a 4-parameter IC50 equation and the IC50 value reported.

[1] = tested on: KRas-mediated Phosphorylation of ERK in H2009 cells; assay: HTRF pERK assay, H2009 cells; format: cell-based; conditions: Homo sapiens, NCI-H2009; H2009 cells by column count (c8); may be PSN1; read-out: Inhibition (HTRF IC50 nM) of KRas-mediated Phosphorylation of ERK, H2009
[2] = tested on: KRas-mediated Phosphorylation of ERK in H727 cells; assay: HTRF pERK assay, H727 cells; format: cell-based; conditions: Homo sapiens, NCI-H727, 3 hrs compound incubation, read-out: Inhibition (HTRF IC50 nM) of KRas-mediated Phosphorylation of ERK, H727
Experimental: (§3) • Day 1: Seed 6,000 cells/well-25 μl/well in 384-well white solid bottom plate; RPM1_10% FBS.
(§4) • 1. To harvest cells from flask using 0.05% Trypsin/EDTA solution. Add 10 mL of media to stop trypsinizing. Pipette the cells into a conical bottom 50 mL centrifuge tube and centrifuge 5 min×1000 rpm. • 2. Re-suspend the cell pellet in media, take a cell count, and then adjust the cell density using fresh media. • 3. Seed 6,000 cells into cell culture plate with 50 μL media. The • 4. Incubate cell plate overnight in a 37° C., 5% CO2 incubator.
(§5) • 1. Use Tecan to complete the compound addition. Compounds start from 10 uM top, 3-fold dilution, and 10 doses. The final DMSO concentration is 0.8%. Dispensed 0.2 uM Trametinib as Min control. • 2. Incubate cell plate for 3 hrs in the incubator. Detection with Cisbio pERK HTRF Kit • 1. Dilute 1 volume of 4× lysis buffer with 3 volumes of deionized water. Then, add 100× the blocking reagent. Keep lysis buffer on the ice. • 2. At the end of the compound treatment, flick-off the media. • 3. Add 35 μL of lysis buffer per well using a Multidrop Combi. Then place on a plate agitator shaking at 300 rpm at 4° C. for 40 mins. • 4. Make up the HTRF antibody buffer. For each assay plate, mix 50 μL of d2-conjugate antibody with 950 μL of detection buffer. Similarly, mix 50 μL of Cryptate antibody with 950 μL of detection buffer. Then mix the two diluted antibodies together. • 5. Dispense 3.4 μL the antibody buffer to wells of an empty assay plate. Seal the plate and centrifuge plate 30 sec×1000 rpm. • 6. At the end of the 4° C. lysis, centrifuge the lysate plates 3 mins×1500 rpm. • 7. Use the Bravo to transfer 13.6 μL of lysate from cell culture plate to assay plate. Then incubate assay plate for 2 hrs at room temperature. • 8. At the end of incubation, read plate on the Envision after centrifuging plate 30 sec×1000 rpm.

KRas^Q61H = target: T2, KRas^Q61H (Homo sapiens, UniProt P01116, Q61H); assay: KRas Binding Assay (TR-FRET displacement), KRas Q61H; conditions: TR-FRET tracer displacement
T2 construct: corresponding to amino acids 1-169, produced at Accelegan Inc; biotin (biotinylated); purchased Accelegan Inc
T2 sequence (P01116 1-169 isoform P01116-2 Q61H): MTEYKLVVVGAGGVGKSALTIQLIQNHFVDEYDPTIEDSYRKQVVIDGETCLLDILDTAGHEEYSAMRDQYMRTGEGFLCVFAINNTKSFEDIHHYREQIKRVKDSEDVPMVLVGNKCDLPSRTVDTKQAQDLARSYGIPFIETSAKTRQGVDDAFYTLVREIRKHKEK
Experimental: as §1, §2

[3] = tested on: KRas-mediated Phosphorylation of ERK in H460 cells; assay: HTRF pERK assay, H460 cells; format: cell-based; conditions: Homo sapiens, NCI-H460, 3 hrs compound incubation, read-out: Inhibition (HTRF IC50 nM) of KRas-mediated Phosphorylation of ERK, H460
Experimental: as §3, §4
as §5, with “Similarly, mix 50 μL of Cryptate antibody with 950 μL of detection buffer. Then mix the two diluted antibodies together. • 5. Dispense 3.4 μL the antibody buffer to wells of an empty assay plate. Seal the plate and centrifuge plate 30 sec×1000 rpm. • 6. At the end of the 4° C. lysis, centrifuge the lysate plates 3 mins×1500 rpm. • 7. Use the Bravo to transfer 13.6 μL of lysate from cell culture plate to assay plate. Then incubate assay plate for 2 hrs at room temperature. • 8.” left out

[4] = tested on: KRas-mediated Phosphorylation of ERK in H358 cells; assay: HTRF pERK assay, H358 cells; format: cell-based; conditions: Homo sapiens, NCI-H358, 3 hrs compound incubation, read-out: Inhibition (HTRF IC50 nM) of KRas-mediated Phosphorylation of ERK, H358
Experimental: as §3, §4
as §5, with “Similarly, mix 50 μL of Cryptate antibody with 950 μL of detection buffer. Then mix the two diluted antibodies together. • 5. Dispense 3.4 μL the antibody buffer to wells of an empty assay plate. Seal the plate and centrifuge plate 30 sec×1000 rpm. • 6. At the end of the 4° C. lysis, centrifuge the lysate plates 3 mins×1500 rpm. • 7. Use the Bravo to transfer 13.6 μL of lysate from cell culture plate to assay plate. Then incubate assay plate for 2 hrs at room temperature. • 8.” left out

KRas^G13D = target: T3, KRas^G13D (Homo sapiens, UniProt P01116, G13D); assay: KRas Binding Assay (TR-FRET displacement), KRas G13D; conditions: TR-FRET tracer displacement
T3 construct: corresponding to amino acids 1-169, produced at Accelegan Inc; biotin (biotinylated); purchased Accelegan Inc
T3 sequence (P01116 1-169 isoform P01116-2 G13D): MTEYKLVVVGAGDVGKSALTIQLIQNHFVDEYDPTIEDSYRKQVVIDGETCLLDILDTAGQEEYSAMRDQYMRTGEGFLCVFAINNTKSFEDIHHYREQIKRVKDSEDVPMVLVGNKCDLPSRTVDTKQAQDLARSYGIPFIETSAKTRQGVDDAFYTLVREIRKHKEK
Experimental: as §1, §2

KRas^G12A = target: T4, KRas^G12A (Homo sapiens, UniProt P01116, G12A); assay: KRas Binding Assay (TR-FRET displacement), KRas G12A; conditions: TR-FRET tracer displacement
T4 construct: corresponding to amino acids 1-169, produced at Accelegan Inc; biotin (biotinylated); purchased Accelegan Inc
T4 sequence (P01116 1-169 isoform P01116-2 G12A): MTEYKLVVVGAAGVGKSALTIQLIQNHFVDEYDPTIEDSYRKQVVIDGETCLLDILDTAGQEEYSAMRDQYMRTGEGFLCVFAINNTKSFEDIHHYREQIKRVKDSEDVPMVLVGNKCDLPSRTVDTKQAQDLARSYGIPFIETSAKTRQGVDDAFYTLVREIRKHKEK
Experimental: as §1, §2

[5] = tested on: KRas-mediated Phosphorylation of ERK in AsPC-1 cells; assay: HTRF pERK assay, AsPC-1 cells; format: cell-based; conditions: Homo sapiens, ASPC1, 3 hrs compound incubation, read-out: Inhibition (HTRF IC50 nM) of KRas-mediated Phosphorylation of ERK, AsPC-1
Experimental: as §3, §4, §5

KRas^G12D = target: T5, KRas^G12D (Homo sapiens, UniProt P01116, G12D); assay: KRas Binding Assay (TR-FRET displacement), KRas G12D; conditions: TR-FRET tracer displacement
T5 construct: corresponding to amino acids 1-169, produced at Accelegan Inc; biotin (biotinylated); purchased Accelegan Inc
T5 sequence (P01116 1-169 isoform P01116-2 G12D): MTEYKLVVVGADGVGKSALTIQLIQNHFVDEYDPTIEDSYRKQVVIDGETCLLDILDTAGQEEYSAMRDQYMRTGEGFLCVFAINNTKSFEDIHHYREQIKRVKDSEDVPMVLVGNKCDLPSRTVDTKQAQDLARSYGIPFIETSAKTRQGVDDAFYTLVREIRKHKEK
Experimental: as §1, §2

KRas^G12R = target: T6, KRas^G12R (Homo sapiens, UniProt P01116, G12R); assay: KRas Binding Assay (TR-FRET displacement), KRas G12R; conditions: TR-FRET tracer displacement
T6 construct: corresponding to amino acids 1-169, produced at Accelegan Inc; biotin (biotinylated); purchased Accelegan Inc
T6 sequence (P01116 1-169 isoform P01116-2 G12R): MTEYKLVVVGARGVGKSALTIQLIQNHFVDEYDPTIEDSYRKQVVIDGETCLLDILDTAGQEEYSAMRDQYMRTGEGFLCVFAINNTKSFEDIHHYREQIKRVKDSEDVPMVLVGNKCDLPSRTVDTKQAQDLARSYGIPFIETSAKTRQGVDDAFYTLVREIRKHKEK
Experimental: as §1, §2

KRas^G12V = target: T7, KRas^G12V (Homo sapiens, UniProt P01116, G12V); assay: KRas Binding Assay (TR-FRET displacement), KRas G12V; conditions: TR-FRET tracer displacement
T7 construct: corresponding to amino acids 1-169, produced at Accelegan Inc; biotin (biotinylated); purchased Accelegan Inc
T7 sequence (P01116 1-169 isoform P01116-2 G12V): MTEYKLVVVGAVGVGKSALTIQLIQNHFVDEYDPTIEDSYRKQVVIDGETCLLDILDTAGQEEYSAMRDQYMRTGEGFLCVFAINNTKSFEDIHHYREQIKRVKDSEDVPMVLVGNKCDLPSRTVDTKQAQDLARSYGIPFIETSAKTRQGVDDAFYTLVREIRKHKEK
Experimental: as §1, §2

[6] = tested on: KRas-mediated Phosphorylation of ERK in MKN1 cells; assay: HTRF pERK assay, MKN1 cells; format: cell-based; conditions: Homo sapiens, MKN-1, 3 hour compound incubation, read-out: Inhibition (HTRF IC50 nM) of KRas-mediated Phosphorylation of ERK, MKN1
Experimental: Cisbio HTRF Advanced pERK Assay Catalog #64AERPEH • Cells: MKN1, PSN1
as §3

[7] = tested on: KRas-mediated Phosphorylation of ERK in HCT116 cells; assay: HTRF pERK assay, HCT116 cells; format: cell-based; conditions: Homo sapiens, HCT-116, 3 hrs compound incubation, read-out: Inhibition (HTRF IC50 nM) of KRas-mediated Phosphorylation of ERK, HCT116
Experimental: as §3, §4
as §5, with “Similarly, mix 50 μL of Cryptate antibody with 950 μL of detection buffer. Then mix the two diluted antibodies together. • 5. Dispense 3.4 μL the antibody buffer to wells of an empty assay plate. Seal the plate and centrifuge plate 30 sec×1000 rpm. • 6. At the end of the 4° C. lysis, centrifuge the lysate plates 3 mins×1500 rpm. • 7. Use the Bravo to transfer 13.6 μL of lysate from cell culture plate to assay plate. Then incubate assay plate for 2 hrs at room temperature. • 8.” left out

KRas^G12C = target: T8, KRas^G12C (Homo sapiens, UniProt P01116, G12C); assay: KRas Binding Assay (TR-FRET displacement), KRas G12C; conditions: TR-FRET tracer displacement
T8 construct: corresponding to amino acids 1-169, produced at Accelegan Inc; biotin (biotinylated); purchased Accelegan Inc
T8 sequence (P01116 1-169 isoform P01116-2 G12C): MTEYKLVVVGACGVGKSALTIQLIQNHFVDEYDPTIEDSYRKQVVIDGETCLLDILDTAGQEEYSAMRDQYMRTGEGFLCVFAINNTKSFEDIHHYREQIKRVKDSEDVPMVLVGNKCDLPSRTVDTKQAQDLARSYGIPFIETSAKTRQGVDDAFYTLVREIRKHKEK
Experimental: as §1, §2

[8] = tested on: KRas-mediated Phosphorylation of ERK in A549 cells; assay: HTRF pERK assay, A549 cells; format: cell-based; conditions: Homo sapiens, 3 hrs compound incubation, read-out: Inhibition (HTRF IC50 nM) of KRas-mediated Phosphorylation of ERK, A549
Experimental: as §3, §4
as §5, with “Similarly, mix 50 μL of Cryptate antibody with 950 μL of detection buffer. Then mix the two diluted antibodies together. • 5. Dispense 3.4 μL the antibody buffer to wells of an empty assay plate. Seal the plate and centrifuge plate 30 sec×1000 rpm. • 6. At the end of the 4° C. lysis, centrifuge the lysate plates 3 mins×1500 rpm. • 7. Use the Bravo to transfer 13.6 μL of lysate from cell culture plate to assay plate. Then incubate assay plate for 2 hrs at room temperature. • 8.” left out

KRas^WT = target: T9, KRas^WT (Homo sapiens, UniProt P01116); assay: KRas Binding Assay (TR-FRET displacement), KRas WT; conditions: TR-FRET tracer displacement
T9 construct: corresponding to amino acids 1-169, produced at Accelegan Inc; biotin (biotinylated); purchased Accelegan Inc
T9 sequence (P01116 1-169 isoform P01116-2): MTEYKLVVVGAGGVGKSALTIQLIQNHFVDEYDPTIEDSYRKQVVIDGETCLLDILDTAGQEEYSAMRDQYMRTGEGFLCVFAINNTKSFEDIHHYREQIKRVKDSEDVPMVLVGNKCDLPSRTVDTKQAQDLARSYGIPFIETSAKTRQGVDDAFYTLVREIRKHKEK
Experimental: as §1, §2

T1 sequence (P01116 1-169 isoform P01116-2 G12S): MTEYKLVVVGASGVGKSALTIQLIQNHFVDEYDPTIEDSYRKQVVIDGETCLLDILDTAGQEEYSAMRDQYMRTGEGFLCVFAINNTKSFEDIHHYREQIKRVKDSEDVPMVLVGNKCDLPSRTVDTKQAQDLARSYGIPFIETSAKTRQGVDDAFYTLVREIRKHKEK

IC50 (KRas^G12S) [nM]	IC50 [1] [nM]	IC50 [2] [nM]	IC50 (KRas^Q61H) [nM]	IC50 [3] [nM]	IC50 [4] [nM]	IC50 (KRas^G13D) [nM]	IC50 (KRas^G12A) [nM]	IC50 [5] [nM]	IC50 (KRas^G12D) [nM]	IC50 (KRas^G12R) [nM]	IC50 (KRas^G12V) [nM]	IC50 [6] [nM]	IC50 [7] [nM]	IC50 (KRas^G12C) [nM]	IC50 [8] [nM]	IC50 (KRas^WT) [nM]	SMILES
25	9300	3900	9	288	216	24	35	898	3	< 2	4	10	962	15	727	31	C[C@H](Oc1nc(-c2cc(C3(C)CCCc4sc(N)c(C#N)c43)sn2)cc(N2CCCC3(CNS(=O)(=O)N3)C2)n1)[C@@H]1CCCN1C (stereo partly drawn) [Example 10, 2-amino-4-(3-(6-(2,2-dioxido-2-thia-1,3,7-triazaspiro[4.5]decan-7-yl)-2-((S)-1-((S)-1-methylpyrrolidin-2-yl)ethoxy)pyrimidin-4-yl)isothiazol-5-yl)-4-methyl-4,5,6,7-tetrahydrobenzo[b]thiophene-3-carbonitrile]
	> 10000	469		394	43			507	11	4	6	44	899		689		C[C@H](Oc1nc(-c2noc(C3(C)CCCc4sc(N)c(C#N)c43)n2)cc(N2CCOCC(C)(O)C2)n1)[C@@H]1CCCN1C (stereo partly drawn) [Example 13, 2-amino-4-(3-(6-(6-hydroxy-6-methyl-1,4-oxazepan-4-yl)-2-((S)-1-((S)-1-methylpyrrolidin-2-yl)ethoxy)pyrimidin-4-yl)-1,2,4-oxadiazol-5-yl)-4-methyl-4,5,6,7-tetrahydrobenzo[b]thiophene-3-carbonitrile]
